Reference: ChEMBL document CHEMBL5728557, “Azetidine derivative, preparation method therefor, and use thereof” (2021)

Legend:
Cytochrome P450 1A2 = target: T1, Cytochrome P450 1A2 (Homo sapiens, UniProt P05177); assay: (§1) As such, the compound of the present invention has no significant inhibitory effect on CYP1A2, CYP2D6 and CYP3A4, and thus has no safety issue caused by metabolism interactions among different drugs due to inhibition of the enzymes.
T1 sequence (P05177 whole entry): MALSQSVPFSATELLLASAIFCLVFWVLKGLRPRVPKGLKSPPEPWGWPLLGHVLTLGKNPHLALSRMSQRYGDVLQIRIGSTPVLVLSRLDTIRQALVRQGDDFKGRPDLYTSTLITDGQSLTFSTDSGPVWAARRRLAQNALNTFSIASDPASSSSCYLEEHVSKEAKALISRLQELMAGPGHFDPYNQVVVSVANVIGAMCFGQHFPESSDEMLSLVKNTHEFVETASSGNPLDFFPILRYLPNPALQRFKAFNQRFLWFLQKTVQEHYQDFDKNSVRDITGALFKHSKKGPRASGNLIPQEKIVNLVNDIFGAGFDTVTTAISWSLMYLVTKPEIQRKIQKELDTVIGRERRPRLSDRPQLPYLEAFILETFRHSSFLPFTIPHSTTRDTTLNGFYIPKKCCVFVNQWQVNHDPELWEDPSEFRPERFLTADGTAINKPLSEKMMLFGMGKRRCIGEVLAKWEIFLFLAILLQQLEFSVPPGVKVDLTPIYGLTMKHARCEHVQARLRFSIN

CYP3A4 = CYP3A4 (Homo sapiens, UniProt P08684); assay: as §1
CYP2D6 = CYP2D6 (Homo sapiens, UniProt P10635); assay: as §1
[1] = target: Voltage-gated inwardly rectifying potassium channel KCNH2 (Homo sapiens, UniProt Q12809); assay: Safety Test: The effect of test compounds on hERG potassium channel were determined using Predictor hERG Fluorescence Polarization Assay at concentrations of 3, 10, and 30 μM.
Chain of Voltage-gated inwardly rectifying potassium channel KCNH2 (Q12809 whole entry): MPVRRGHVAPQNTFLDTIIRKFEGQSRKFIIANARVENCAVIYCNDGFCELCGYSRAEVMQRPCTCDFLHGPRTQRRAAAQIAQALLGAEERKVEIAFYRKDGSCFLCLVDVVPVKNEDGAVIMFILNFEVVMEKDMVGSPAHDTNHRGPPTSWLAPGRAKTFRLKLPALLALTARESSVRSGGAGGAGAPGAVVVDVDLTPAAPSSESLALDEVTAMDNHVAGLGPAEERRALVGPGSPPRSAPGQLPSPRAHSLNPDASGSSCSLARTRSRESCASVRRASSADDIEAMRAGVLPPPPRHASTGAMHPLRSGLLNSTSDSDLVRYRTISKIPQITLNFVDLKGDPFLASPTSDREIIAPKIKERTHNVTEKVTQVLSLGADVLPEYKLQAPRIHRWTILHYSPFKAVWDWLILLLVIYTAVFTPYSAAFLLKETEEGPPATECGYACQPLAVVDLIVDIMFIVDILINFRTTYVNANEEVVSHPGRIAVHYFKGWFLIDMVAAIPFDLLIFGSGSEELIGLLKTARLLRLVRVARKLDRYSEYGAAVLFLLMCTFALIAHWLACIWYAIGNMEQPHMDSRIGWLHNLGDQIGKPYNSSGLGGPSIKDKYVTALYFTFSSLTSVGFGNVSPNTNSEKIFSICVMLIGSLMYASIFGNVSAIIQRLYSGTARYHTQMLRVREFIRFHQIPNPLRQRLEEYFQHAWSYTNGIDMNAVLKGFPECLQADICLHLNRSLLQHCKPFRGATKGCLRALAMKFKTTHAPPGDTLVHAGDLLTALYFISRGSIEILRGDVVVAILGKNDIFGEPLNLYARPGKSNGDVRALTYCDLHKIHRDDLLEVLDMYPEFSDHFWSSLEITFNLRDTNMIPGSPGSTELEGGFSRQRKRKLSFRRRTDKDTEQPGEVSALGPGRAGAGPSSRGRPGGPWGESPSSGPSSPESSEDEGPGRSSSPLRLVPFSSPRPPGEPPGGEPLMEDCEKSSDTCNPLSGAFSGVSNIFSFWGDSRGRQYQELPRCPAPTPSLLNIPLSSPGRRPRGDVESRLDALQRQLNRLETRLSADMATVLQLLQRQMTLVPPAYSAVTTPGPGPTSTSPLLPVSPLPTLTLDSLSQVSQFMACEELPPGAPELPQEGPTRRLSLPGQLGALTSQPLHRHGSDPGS

Chain of CYP2D6 (P10635 whole entry): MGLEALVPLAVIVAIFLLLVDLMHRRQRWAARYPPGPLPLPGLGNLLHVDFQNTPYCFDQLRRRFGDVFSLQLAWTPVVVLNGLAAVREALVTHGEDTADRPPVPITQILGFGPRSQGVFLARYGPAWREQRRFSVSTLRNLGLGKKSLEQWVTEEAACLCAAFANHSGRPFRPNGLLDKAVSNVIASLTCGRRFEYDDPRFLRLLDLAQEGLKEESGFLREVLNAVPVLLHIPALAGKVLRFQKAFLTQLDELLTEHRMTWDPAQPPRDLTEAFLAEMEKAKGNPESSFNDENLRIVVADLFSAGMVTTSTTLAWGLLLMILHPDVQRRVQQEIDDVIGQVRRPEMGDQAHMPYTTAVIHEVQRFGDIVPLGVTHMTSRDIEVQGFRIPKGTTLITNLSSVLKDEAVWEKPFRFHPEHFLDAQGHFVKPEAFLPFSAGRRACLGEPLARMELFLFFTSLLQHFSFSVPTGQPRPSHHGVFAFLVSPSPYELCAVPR
Chain of CYP3A4 (P08684 whole entry): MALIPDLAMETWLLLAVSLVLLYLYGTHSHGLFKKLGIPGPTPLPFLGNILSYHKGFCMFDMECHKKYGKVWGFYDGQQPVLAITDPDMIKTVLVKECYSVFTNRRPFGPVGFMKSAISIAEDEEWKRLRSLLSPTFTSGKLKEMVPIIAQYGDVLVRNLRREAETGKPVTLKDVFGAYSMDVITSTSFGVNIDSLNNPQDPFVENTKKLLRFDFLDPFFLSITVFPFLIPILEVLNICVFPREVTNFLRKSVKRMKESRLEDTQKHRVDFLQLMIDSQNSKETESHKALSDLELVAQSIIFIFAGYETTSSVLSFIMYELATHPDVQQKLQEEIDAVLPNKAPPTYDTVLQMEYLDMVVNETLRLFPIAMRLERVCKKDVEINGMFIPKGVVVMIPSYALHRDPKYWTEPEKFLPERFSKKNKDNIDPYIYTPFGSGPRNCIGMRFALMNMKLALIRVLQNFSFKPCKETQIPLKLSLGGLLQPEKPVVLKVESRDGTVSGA

Compound: Cc1nn(C2(CC#N)CN(S(=O)(=O)C(C)C)C2)cc1-c1ncnc2[nH]ccc12
- IC50 (Cytochrome P450 1A2): > 10 µM
- IC50 (CYP3A4): > 10 µM
- IC50 (CYP2D6): > 10 µM
- IC50 [1]: > 30 µM
